Experimental data reported in patent publication US11447482B1, “Imidazopyridine and oxazolopyridine derivatives and analogs thereof, methods of preparation thereof, methods of HIF-2A pathway inhibition, and induction of ferroptosis” (KUDA Therapeutics, Inc., priority 2019, dated 2022).

Tested on: 786-0 CCRCC cells
Experiment: ICP-MS of cellular iron, zinc and copper
Format: cell-based, human
Conditions: 786-0 cells, 24 hours, 1.5 μM KD002 or KD021, 2.5 μM KD025HCl, versus DMSO
Procedure: These studies were performed to determine the content of iron and other transition metals in cells after exposure the compounds described herein. 786-0 cells were seeded at 1.5 million cells/flask in T75 cm^2 flasks in DMEM+10% FBS, and allowed to adhere overnight. Cells were then treated with indicated concentrations of compounds in DMSO or DMSO alone (vehicle) for a further 24 hours, after which cells were detached by trypsinization, counted, washed twice in PBS and pelleted. Experiments were performed using three replicate T75 cm^2 flasks per condition. A 5:1 mixture of nitric acid (OPTIMA Grade, 70%, Fisher Scientific) and ultrapure hydrogen peroxide (ULTREX II, 30%, Fisher Scientific) was added to cell pellets. This mixture was allowed to digest overnight, heated until dry, and resuspended in 2% nitric acid for analysis using an Agilent 7900 ICP-MS (Agilent Technologies, Santa Clara, Calif.). Calibration standard solutions for determination of Fe were prepared from Agilent multi-element calibration standard-2A. An Agilent Environmental Calibration Standard was used as an independent control. PBS-only control digestions were used to measure background. Metal readings were normalized to cell number. Data obtained from these studies for three replicate readings (with SEM) are shown in FIG. 4, which show an increase in cellular iron (Fe) content after treatment with indicated compounds.

COc1ccc(-c2nnc(Nc3nc4c(OC)nccc4[nH]3)o2)cc1OC [KD025HCl, N-(4-Methoxy-1H-imidazo[4,5-c]pyridin-2-yl)-5-(3,4-dimethoxyphenyl)-1,3,4-oxadiazol-2-amine]
increases: cellular copper (Cu) content (ICP-MS) | cellular iron (Fe) content (ICP-MS) | cellular zinc (Zn) content (ICP-MS)
